Test results reported in the supplement of paper PMC13380429.

Columns and labels:
Conditions in all cases: 72 h
Caco-2 [1] = test: cell viability relative to DMSO; higher = less toxic
Calu-3 [2] = test: as above
HepG2 [3] = test: as above
U2OS [4] = test: as above
Vero E6 [5] = test: as above
Caco-2 [6] = test: relative viability EC50 (midpoint between 100% and the lowest measured viability); higher = less toxic
Calu-3 [7] = test: as above
HepG2 [8] = test: as above
U2OS [9] = test: as above
Vero E6 [10] = test: as above
Caco-2 [11] = test: drug sensitivity score (DSS) for viability; higher = more toxic; extreme values may be limits of the assay
Calu-3 [12] = test: as above
HepG2 [13] = test: as above
U2OS [14] = test: as above
Vero E6 [15] = test: as above

Row | SMILES | cell viability (Caco-2 [1]; 1 nM) [%] | cell viability (Caco-2 [1]; 10 nM) [%] | cell viability (Caco-2 [1]; 100 nM) [%] | cell viability (Caco-2 [1]; 1000 nM) [%] | cell viability (Caco-2 [1]; 10000 nM) [%] | cell viability (Calu-3 [2]; 1 nM) [%] | cell viability (Calu-3 [2]; 10 nM) [%] | cell viability (Calu-3 [2]; 100 nM) [%] | cell viability (Calu-3 [2]; 1000 nM) [%] | cell viability (Calu-3 [2]; 10000 nM) [%] | cell viability (HepG2 [3]; 1 nM) [%] | cell viability (HepG2 [3]; 10 nM) [%] | cell viability (HepG2 [3]; 100 nM) [%] | cell viability (HepG2 [3]; 1000 nM) [%] | cell viability (HepG2 [3]; 10000 nM) [%] | cell viability (U2OS [4]; 1 nM) [%] | cell viability (U2OS [4]; 10 nM) [%] | cell viability (U2OS [4]; 100 nM) [%] | cell viability (U2OS [4]; 1000 nM) [%] | cell viability (U2OS [4]; 10000 nM) [%] | cell viability (Vero E6 [5]; 1 nM) [%] | cell viability (Vero E6 [5]; 10 nM) [%] | cell viability (Vero E6 [5]; 100 nM) [%] | cell viability (Vero E6 [5]; 1000 nM) [%] | cell viability (Vero E6 [5]; 10000 nM) [%] | relative viability EC50 (Caco-2 [6]) [µM] | relative viability EC50 (Calu-3 [7]) [µM] | relative viability EC50 (HepG2 [8]) [µM] | relative viability EC50 (U2OS [9]) [µM] | relative viability EC50 (Vero E6 [10]) [µM] | drug sensitivity score (Caco-2 [11]) | drug sensitivity score (Calu-3 [12]) | drug sensitivity score (HepG2 [13]) | drug sensitivity score (U2OS [14]) | drug sensitivity score (Vero E6 [15])
1 | O=C(O)COc1nn(Cc2ccccc2)c2ccccc12 [bendazac] | 109 | 96.3 | 103 | 97.6 | 102 | 86.6 | 83.3 | 104 | 103 | 104 | 91.7 | 104 | 97.3 | 94.1 | 98.7 | 91.7 | 95.3 | 98.9 | 92.3 | 96.1 | 101 | 101 | 99 | 103 | 98.8 | > 10 | > 10 | > 10 | > 10 | > 10 | 0 | 0 | 0 | 0 | 0
2 | N#Cc1cc(F)cc(-c2nc(-c3ccc(F)cn3)no2)c1 [AZD9272] | 96.7 | 105 | 101 | 111 | 94.8 | 109 | 92.1 | 97.7 | 90.4 | 97.5 | 94.3 | 99.5 | 95.5 | 107 | 96.2 | 94.9 | 99 | 96.7 | 104 | 103 | 96.7 | 95.2 | 95.8 | 89.5 | 108 | > 10 | > 10 | > 10 | > 10 | > 10 | 0 | 0 | 0 | 0 | 0
3 | CC(C)CCC[C@@H](C)[C@H]1CC[C@H]2[C@@H]3CCC4=CC(=NO)CC[C@]4(C)[C@H]3CC[C@]12C [olesoxime] | 99.2 | 87.1 | 102 | 97.6 | 99.1 | 97.3 | 95.6 | 90.7 | 100 | 93.9 | 100 | 96.5 | 95.3 | 103 | 97.4 | 101 | 95.9 | 98 | 95.3 | 100 | 97.2 | 98.6 | 96.5 | 98.6 | 94.3 | > 10 | > 10 | > 10 | > 10 | > 10 | 0 | 0 | 0 | 0 | 0
4 | CCCCCCCCCCCCCCCC[n+]1ccccc1 [cetylpyridinium] | 103 | 99 | 101 | 66.4 | 16.5 | 104 | 99.9 | 105 | 84.3 | 44.1 | 106 | 95.4 | 89.2 | 58.2 | 14.6 | 103 | 102 | 104 | 80.9 | 10.1 | 96.2 | 97.5 | 98.1 | 91.6 | 19.2 | 1.17 | 1.46 | 0.929 | 1.68 | 2.3 | 9.1 | 5.4 | 9.8 | 8 | 5.9
